Test results from patent US20120302607A1, “C4-SUBSTITUTED ALPHA-KETO OXAZOLES” (The Scripps Research Institute, priority 2008, published 2012).
pIC50, pKi: −log10 of the molar value.

Tests used:
[1] = target: T1, triacylglycerol hydrolase (TGH) (UniProt Q8VCT4); assay: Proteome-wide serine hydrolase selectivity screening, TGH; format: biochemical, human; settings: selectivity screening
T1 sequence (Q8VCT4 1-565): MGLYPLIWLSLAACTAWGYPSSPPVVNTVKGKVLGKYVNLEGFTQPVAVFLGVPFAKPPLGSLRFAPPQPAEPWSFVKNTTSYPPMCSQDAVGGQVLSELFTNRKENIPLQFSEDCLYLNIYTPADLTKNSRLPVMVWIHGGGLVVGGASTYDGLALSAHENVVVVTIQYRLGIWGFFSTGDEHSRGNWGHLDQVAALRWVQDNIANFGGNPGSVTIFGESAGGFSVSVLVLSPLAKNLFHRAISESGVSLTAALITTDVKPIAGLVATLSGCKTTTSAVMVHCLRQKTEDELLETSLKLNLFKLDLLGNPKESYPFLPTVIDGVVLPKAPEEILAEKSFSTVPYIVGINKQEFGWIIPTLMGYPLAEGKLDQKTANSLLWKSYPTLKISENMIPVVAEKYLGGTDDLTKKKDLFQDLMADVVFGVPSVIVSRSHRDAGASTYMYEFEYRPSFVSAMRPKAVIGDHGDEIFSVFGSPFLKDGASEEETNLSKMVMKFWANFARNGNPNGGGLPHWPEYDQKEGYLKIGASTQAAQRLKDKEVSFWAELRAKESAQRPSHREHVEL

[2] = test system: triacylglycerol hydrolase (TGH); assay: as above; format: biochemical, human; settings: value in parentheses; FAAH versus TGH
[3] = target: T2, truncated rat FAAH (rFAAH) (Rattus norvegicus, UniProt P97612); assay: Rat FAAH inhibition enzyme assay (14C-oleamide hydrolysis, Dixon plot); format: biochemical; settings: Table 2; read-out: FAAH Ki
T2 construct: The truncated rat FAAH (rFAAH) was expressed in E. coli and purified as described by Patricelli et al; made in house; host or cells: E. coli
T2 sequence (P97612 30-579 limits assumed): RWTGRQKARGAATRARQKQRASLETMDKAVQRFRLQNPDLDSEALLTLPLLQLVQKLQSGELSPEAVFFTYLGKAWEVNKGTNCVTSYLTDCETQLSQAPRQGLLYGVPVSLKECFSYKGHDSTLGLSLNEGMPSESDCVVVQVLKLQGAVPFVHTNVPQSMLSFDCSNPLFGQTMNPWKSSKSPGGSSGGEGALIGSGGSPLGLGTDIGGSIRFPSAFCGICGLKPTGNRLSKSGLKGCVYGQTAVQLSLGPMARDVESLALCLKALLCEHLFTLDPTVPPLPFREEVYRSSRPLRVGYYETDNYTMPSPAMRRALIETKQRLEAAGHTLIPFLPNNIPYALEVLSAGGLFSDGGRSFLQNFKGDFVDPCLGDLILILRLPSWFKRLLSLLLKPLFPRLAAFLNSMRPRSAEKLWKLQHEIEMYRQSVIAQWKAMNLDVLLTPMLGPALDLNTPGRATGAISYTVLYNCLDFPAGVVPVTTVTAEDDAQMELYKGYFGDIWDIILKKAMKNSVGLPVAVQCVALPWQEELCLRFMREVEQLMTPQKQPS
Protocol: The purified recombinant rFAAH was used in the inhibition assays unless otherwise indicated.
The ^14C-labeled oleamide (substrate) and oleic acid (product) were extracted with EtOAc and analyzed by TLC. The Ki of the inhibitor was calculated using a Dixon plot (standard deviations are provided in the Supporting Information tables).

FAAH = target: T3, FAAH (UniProt O08914); assay: Proteome-wide serine hydrolase selectivity screening, FAAH; format: biochemical, human
T3 sequence (O08914 1-579): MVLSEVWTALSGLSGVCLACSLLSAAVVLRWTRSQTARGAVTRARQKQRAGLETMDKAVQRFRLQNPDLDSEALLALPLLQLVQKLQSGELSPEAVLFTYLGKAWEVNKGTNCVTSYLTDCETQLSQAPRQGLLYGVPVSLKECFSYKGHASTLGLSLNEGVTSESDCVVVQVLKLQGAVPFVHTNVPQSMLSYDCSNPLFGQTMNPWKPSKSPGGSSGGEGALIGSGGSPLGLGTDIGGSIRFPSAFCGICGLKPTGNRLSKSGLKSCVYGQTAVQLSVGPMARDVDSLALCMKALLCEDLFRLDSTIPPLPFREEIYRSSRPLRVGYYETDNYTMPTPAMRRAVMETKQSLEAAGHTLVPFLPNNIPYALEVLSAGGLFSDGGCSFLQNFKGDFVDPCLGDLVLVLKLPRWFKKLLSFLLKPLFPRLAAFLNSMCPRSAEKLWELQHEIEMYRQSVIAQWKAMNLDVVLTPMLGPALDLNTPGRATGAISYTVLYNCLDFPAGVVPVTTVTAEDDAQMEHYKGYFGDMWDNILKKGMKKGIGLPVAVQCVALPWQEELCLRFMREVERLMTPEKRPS

[4] = test system: membrane-associated hydrolase (KIAA1363); assay: Proteome-wide serine hydrolase selectivity screening, KIAA1363; format: biochemical; settings: value in parentheses; FAAH versus KIAA1363
[5] = target: T4, membrane-associated hydrolase (KIAA1363) (UniProt Q8BLF1); assay: as above; format: biochemical; settings: selectivity screening
T4 sequence (Q8BLF1 1-408): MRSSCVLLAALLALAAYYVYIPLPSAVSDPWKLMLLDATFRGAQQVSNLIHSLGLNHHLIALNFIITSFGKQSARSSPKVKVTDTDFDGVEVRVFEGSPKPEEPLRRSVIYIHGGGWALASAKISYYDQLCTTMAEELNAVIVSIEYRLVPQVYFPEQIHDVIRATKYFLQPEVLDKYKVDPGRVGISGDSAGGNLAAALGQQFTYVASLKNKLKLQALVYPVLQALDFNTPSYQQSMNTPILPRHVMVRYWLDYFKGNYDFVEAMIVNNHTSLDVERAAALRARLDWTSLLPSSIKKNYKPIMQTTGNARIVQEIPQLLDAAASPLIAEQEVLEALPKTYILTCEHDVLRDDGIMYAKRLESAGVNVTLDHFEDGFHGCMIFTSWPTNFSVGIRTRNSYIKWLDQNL

pIC50 [1]: 6.70
TGH (selectivity) [2]: (3)
pKi [3]: 9.52
pIC50 (FAAH): 7.15
KIAA1363 (selectivity) [4]: (>1400)
pIC50 [5]: < 4.00
SMILES: O=C(CCCCCCc1ccccc1)c1ncc(C(F)(F)F)o1 [Compound 5a, reference compound]
